Data published in patent US11013235B2 (priority 2015, dated 2021).
Where two headings read alike, the source gives them in different places.

How the values were obtained:
Format in all cases: in vivo
Rhizoctonia solani [1] = test: Control of Rhizoctonia solani disease in tomato (Rs-SI); settings: 1 μM spraying every 24 hours for one week, water control 96
Botrytis cinerea [2] = test: Control of Botrytis cinerea disease in tobacco (Bc-Nt); settings: 1 μM spraying every 24 hours for one week, water control 6.7
In short: (§1)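 Treatment: spraying at 1 μM every 24 h for 1 week after pathogen inoculation, versus water. Scoring differed by pathogen: Botrytis by lesion diameter, Alternaria by fraction of leaves with symptoms, Nocardia by plant mortality.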

Meloidogyne incognita = test: Nematode control, nodules per plant: Meloidogyne incognita; settings: 1 μM foliar application every 5 days, evaluation 35 days after, control 34
In short: (§2)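 Foliar application at 1 μM; spraying every 5 days; n = 10 plants/treatment; nodules/plant scored day 35.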

Rhizoctonia solani [3] = test: Control of Rhizoctonia solani disease in tobacco (Rs-Nt); settings: 1 μM spraying every 24 hours for one week, water control 87
Botrytis cinerea [4] = test: Control of Botrytis cinerea disease in Arabidopsis (Bc-At); settings: 1 μM spraying every 24 hours for one week, water control 8.7
In short: as §1

Radopholus similis = test: Nematode control, nodules per plant: Radopholus similis; settings: 1 μM foliar application every 5 days, evaluation 35 days after, control 45
In short: as §2

Pratylenchus coffeae = test: Nematode control, nodules per plant: Pratylenchus coffeae; settings: 1 μM foliar application every 5 days, evaluation 35 days after, control 42
In short: as §2

Phytophthora parasitica = test: Control of Phytophthora parasitica disease in tobacco (Pp-Nt); settings: 1 μM spraying every 24 hours for one week, water control 91
Nocardia sp = test: Control of Nocardia sp disease in tobacco (N-Nt); settings: 1 μM spraying every 24 hours for one week, water control 58
In short: as §1

[5] = system: Candidatus 'Liberibacter asiaticus'; settings: spraying every 15 days, 12 months after treatment, Citrus sinensis with HLB
Botrytis cinerea [6] = test: Control of Botrytis cinerea disease in tomato (Bc-SI); settings: 1 μM spraying every 24 hours for one week, water control 7.4
In short: as §1

Alternaria solani = test: Control of Alternaria solani disease in tomato (As-SI); settings: 1 μM spraying every 24 hours for one week, water control 68
In short: as §1

Row | Structure (SMILES) | Rs-SI: percentage of mortality (Rhizoctonia solani [1]) | Bc-Nt: mean of the diameter of the lesion (Botrytis cinerea [2]) | Mi: number of nodules per plant (Meloidogyne incognita) | Rs-Nt: percentage of mortality (Rhizoctonia solani [3]) | Bc-At: mean of the diameter of the lesion (Botrytis cinerea [4]) | Rs: number of nodules per plant (Radopholus similis) | Pc: number of nodules per plant (Pratylenchus coffeae) | Pp-Nt: percentage of mortality (Phytophthora parasitica) | N-Nt: percentage of mortality (Nocardia sp) | Titers of the bacterium ([5]; 0.001 μM) | Titers of the bacterium ([5]; 0.01 μM) | Titers of the bacterium ([5]; 1 μM) | Titers of the bacterium ([5]; 5 μM) | Titers of the bacterium ([5]; 10 μM) | Bc-SI: mean of the diameter of the lesion (Botrytis cinerea [6]) | As-SI: percentage of leaves with the disease symptoms (Alternaria solani)
1 | O=C(c1ccc(OC2CCN(CC(O)CO)CC2)cc1)N1CCC(n2cccc2)C1 (stereo not drawn) [IVK, 3-[4-(4-{[3-(1H-pyrrol-1-yl)pyrrolidin-1-yl]carbonyl}phenoxy)piperidin-1-yl]propane-1,2-diol] | 3% | 0.9 mm | 2 | 2% | 0.5 mm | 14 | 14 | 1% | 1% | 578 copies per reaction | 5 copies per reaction | 4 copies per reaction | 78 copies per reaction | 8542 copies per reaction | 0.8 mm | 1%
2 | Cc1nc(N2CCN(c3ccccc3)CC2)ncc1C(=O)N1CC2CC(O)C(O)CC2C1 (stereo not drawn) [IIID, 2-{[4-methyl-2-(4-phenylpiperazin-1-yl)pyrimidin-5-yl]carbonyl}-octahydro-1H-isoindole-5,6-diol] | 2% | 2.0 mm | 0 | 0% | 1.1 mm | 0 | 18 | 0% | 1% | 985 copies per reaction | 1 copies per reaction | 0 copies per reaction | 98 copies per reaction | 9653 copies per reaction | 1.6 mm | 8%
3 | O=C(Cc1cc2c(oc1=O)C=CC1C(n3cccc3)=COC21)NCC(O)CO (stereo not drawn) [IIG, N-(2,3-dihydroxypropyl)-2-[11-oxo-5-(1H-pyrrol-1-yl)-3,10-dioxatricyclo[7.4.0.0^{2,6}]trideca-1(9),4,7,12-tetraen-12-yl]acetamide] | 1% | 0.9 mm | 0 | 0% | 0.5 mm | 3 | 0 | 3% | 0% | 658 copies per reaction | 0 copies per reaction | 3 copies per reaction | 68 copies per reaction | 4587 copies per reaction | 0.8 mm | 7%
4 | Cc1c(CCC(=O)NCC(O)CO)c(=O)oc2cc3occ(-n4cccc4)c3cc12 (stereo not drawn) [IN, N-(2,3-dihydroxypropyl)-3-[4-methyl-2-oxo-6-(1H-pyrrol-1-yl)-2H-furo[3,2-g]chromen-3-yl]propanamide] | 1% | 2.0 mm | 0 | 0% | 1.1 mm | 3 | 0 | 3% | 0% | 524 copies per reaction | 0 copies per reaction | 0 copies per reaction | 54 copies per reaction | 2368 copies per reaction | 1.6 mm | 7%
5 | CC1=COC2c3c(oc(=O)c(CC(=O)NCC(O)CO)c3C)C=CC12 (stereo not drawn) [IIH, N-(2,3-dihydroxypropyl)-2-{5,13-dimethyl-11-oxo-3,10-dioxatricyclo[7.4.0.0^{2,6}]trideca-1(9),4,7,12-tetraen-12-yl}acetamide] | 3% | 1.5 mm | 2 | 2% | 1.5 mm | 16 | 18 | 1% | 1% | 756 copies per reaction | 0 copies per reaction | 1 copies per reaction | 76 copies per reaction | 2365 copies per reaction | 2.5 mm | 1%
6 | O=C(c1ccc(OC2CCN(CC(O)CO)CC2)cc1)N1CCC(C2CCCCC2)C1 (stereo not drawn) [IVE] | 2% | 0.9 mm | 4 | 4% | 0.5 mm | 14 | 2 | 1% | 2% | 985 copies per reaction | 0 copies per reaction | 0 copies per reaction | 98 copies per reaction | 9845 copies per reaction | 0.8 mm | 3%
7 | CN1c2cc(C(N)=O)ccc2OCC1CC(=O)NC(CO)CO (stereo not drawn) [VJ, 3-{[(1,3-dihydroxypropan-2-yl)carbamoyl]methyl}-4-methyl-3,4-dihydro-2H-1,4-benzoxazine-6-carboxamide] | 2% | 0.3 mm | 0 | 0% | 1.2 mm | 0 | 14 | 0% | 1% | 456 copies per reaction | 0 copies per reaction | 0 copies per reaction | 56 copies per reaction | 1351 copies per reaction | 0.8 mm | 8%
8 | O=C(Cc1cc2c(oc1=O)C=CC1C(c3ccc4ccccc4c3)=COC21)NCC(O)CO (stereo not drawn) [IIE, N-(2,3-dihydroxypropyl)-2-[5-(naphthalen-2-yl)-11-oxo-3,10-dioxatricyclo[7.4.0.0^{2,6}]trideca-1(9),4,7,12-tetraen-12-yl]acetamide] | 0% | 0.3 mm | 0 | 0% | 1.2 mm | 0 | 0 | 0% | 0% | 985 copies per reaction | 1 copies per reaction | 5 copies per reaction | 98 copies per reaction | 2547 copies per reaction | 0.8 mm | 7%
9 | Cc1c(CCC(=O)NCC(O)CO)c(=O)oc2cc3occc3cc12 (stereo not drawn) [IM, N-(2,3-dihydroxypropyl)-3-{4-methyl-2-oxo-2H-furo[3,2-g]chromen-3-yl}propanamide] | 1% | 0.3 mm | 0 | 0% | 1.2 mm | 0 | 0 | 0% | 0% | 635 copies per reaction | 0 copies per reaction | 0 copies per reaction | 65 copies per reaction | 3541 copies per reaction | 0.8 mm | 5%
